Patent US20210223230A1, “Neamine Compositions and Methods of Use Thereof” (President and Fellows of Harvard College, priority 2008, published 2021)
Several values for one entry are separate records, joined by “and”; a condition that tells them apart may be missing. Identical values can stand only once. Entries after “also recorded” stand apart in the source; their conditions may differ. Like-named read-outs stand apart in the source and are kept apart here.

How the values were obtained:
ANG [1] = details: literature reports; cited from earlier work
angiogenesis = details: literature reports; cited from earlier work
[2] = mouse, in vivo, sc; cited from earlier work
[3] = system: PC-3 human prostate cancer cells; experiment: Xenograft growth of PC-3 cell tumors in athymic mice; type: in vivo
Description: Male athymic mice were inoculated with 5×10^5 of PC-3 cells, and treated sub-cutaneously (s.c.) with PBS or neamine at a dose of 30 mg/kg body weight twice weekly for 8 weeks. Twelve mice were used per group. (A) Mice were examined by palpation for tumor appearance. (B) Tumor sizes were measured with a caliper and were expressed as length×width^2. At day 56, mice were sacrificed and tumor tissues were removed, photographed (C) and weighed (D).
Xenograft growth of PC-3 cell tumors. Five-week-old male athymic mice were inoculated s.c. with 100 μl of a mixture containing 5×10^5 PC-3 cells and 33 μl of Matrigel. The mice were treated s.c. with PBS or neamine (30 mg/kg) twice weekly for 8 weeks. Tumor sizes were measured every 3 days and recorded in mm^3 (Length×width^2). Mice were sacrificed at day 56 and the tumors were removed and the wet weights of the PC-3 tumors were recorded.

PC-3 cell tumor tissues = experiment: IHC and ISH of PC-3 xenograft tumor tissues (ANG localization, 47S rRNA, PCNA, vWF); type: in vivo, athymic mice
Description: PBS- and neamine-treated tumor tissues were fixed in formalin, embedded in paraffin, and sections of […] were cut. (A) Localization of ANG was determined by IHC with anti-human ANG monoclonal antibody 26-2F. […] (C) Proliferating cells were stained with an anti-PCNA monoclonal antibody (mAb). PCNA positive and total numbers of cells were counted in 5 randomly selected areas at 200× magnification. (D) Blood vessels were stained with an anti-vWF antibody and counted in five most vascularized areas at 200× magnification.

established PIN = experiment: Reversal of established PIN in 12-week-old MPAKT mice; type: in vivo; details: for AKT expression and phosphorylation (IHC) / established PIN phenotype (H&E) / rRNA transcription / 47S rRNA level (ISH): daily i.p. 4 weeks from week 12; for apoptotic index: neomycin 10 mg/kg, N65828 4 mg/kg daily i.p. 4 weeks from week 12, control 0.95±0.11
[4] = Acute LD50 (subcutaneous) in mice; type: in vivo
[5] = Adverse side effects in the treated mice of these studies; type: in vivo; details: 30 mg/kg s.c. and 10 mg/kg i.p.
[6] = cited from earlier work
[7] = system: HT-29 human colon adenocarcinoma; details: cited from earlier work
[8] = system: MDA-MB-435 human breast cancer cells; details: cited from earlier work
AKT-induced PIN = experiment: Prevention of AKT-induced PIN in 4-week-old MPAKT mice by small-molecule ANG inhibitors; details: for 47S rRNA level / transcription (ISH) / AKT phosphorylation (IHC) / localization of ANG in prostate epithelial cells (IHC) / PIN formation (H&E): daily i.p. 4 weeks from week 4; for PIN formation (H&E): neamine, neomycin 10 mg/kg, N65828 4 mg/kg
ANG [9] = experiment: Nuclear translocation of ANG; type: cell-based; details: inhibitors tested
[10] = system: PC-3 human prostate cancer cells; details: nude mice, literature; cited from earlier work
[11] = in vivo; cited from earlier work
LNCaP cells = experiment: LNCaP cell proliferation in phenol red-free and steroid-free medium; type: cell-based, human; details: ANG 0.1 μg/ml, DHT 10 nM
Description: (a) ANG stimulates LNCaP cell proliferation in the absence of androgens. Cells were culture in phenol red-free and charcoal/dextran-stripped (steroid-free) FBS for 2 day and stimulated with DHT (10 nM), ANG (0.1 μg/ml), or a mixture of the two for the time indicated. (b) Dose dependence. ANG was added to the cells and cultured for 4 days. (c) Anti-ANG mAb 26-2F inhibits DHT-induced cell proliferation. LNCaP cells were stimulated with 10 nM DHT in the presence of 26-2F or a control non-immune IgG for 3 days. (d) ANG over-expression promotes LNCaP proliferation in vitro. The vector control (pCI-Neo) and ANG transfectants (pCI-ANG) were cultured in phenol red-free and steroid-free medium for the time indicated. (e) Xenograft growth in castrated SCID mice. A mixture of 70 μl cell suspension (1×10^6 cells) and 30 μl Matrigel was injected s.c. per mouse (8 per group). The mice were castrated or sham-operated at the same time. Tumors were inspected and measured twice a week and the animals were sacrificed after 8 weeks of observation. (f) Endogenous ANG of LNCaP cells is essential for androgen-induced rRNA transcription. LNCaP cells were cultured in phenol red-free and steroid-free medium and incubated with DHT (10 nM), ANG (0.1 μg/ml), anti-ANG mAb 26-2F (60 μg/ml) or a mixture of DHT and 26-2F for 2 h. […]

ANG [12] = molecular target: ANG (Homo sapiens, UniProt P03950); details: screen of 18,310 compounds; cited from earlier work
Chain of ANG (Homo sapiens, UniProt P03950) (P03950 25-147): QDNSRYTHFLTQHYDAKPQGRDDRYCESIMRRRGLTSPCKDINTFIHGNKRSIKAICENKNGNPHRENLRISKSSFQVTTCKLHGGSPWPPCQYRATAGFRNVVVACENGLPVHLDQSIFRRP

Molecule: [H]/N=C(/N)N[C@H]1[C@H](O)[C@@H](O)[C@H](O[C@@H]2O[C@@H](C)[C@](O)(C=O)[C@H]2O[C@@H]2O[C@@H](CO)[C@H](O)[C@@H](O)[C@@H]2NC)[C@@H](N/C(N)=N\[H])[C@@H]1O [streptomycin]
- effect on nuclear translocation of ANG (ANG [1]): do not block
- anti-angiogenic activity (angiogenesis): not anti-angiogenic
- acute LD50 (subcutaneous) in mice [2]: 600 mg/kg

Molecule: NC[C@H]1O[C@H](O[C@H]2[C@H](O)[C@@H](O)[C@H](N)C[C@@H]2N)[C@H](N)[C@@H](O)[C@@H]1O [neamine]
- inhibition of tumor growth ([3]; day 56, from tumor weight vs control): 72.5%
- average tumor weight ([3]; day 56, neamine 30 mg/kg s.c. twice weekly, control 620±310): 170 ± 50 mg
- tumor growth rate in animals that did develop tumors ([3]; neamine 30 mg/kg s.c. twice weekly): decreased significantly
- animals in which tumor establishment was prevented ([3]; neamine 30 mg/kg s.c. twice weekly for 8 weeks, n=12): 50%
- animals with palpable tumors at day 20 ([3]; neamine 30 mg/kg s.c. twice weekly, day 20): 5 of the 12
- decrease in cell proliferation (PC-3 cell tumor tissues; from PCNA positive cells vs control): 66%
- decrease in tumor angiogenesis (PC-3 cell tumor tissues; from vessel density vs control): 72.8%
- PCNA positive cells (PC-3 cell tumor tissues; neamine-treated PC-3 tumors, control 75.4±6): 25.6±6.4%
- vessel density (vWF) (PC-3 cell tumor tissues; neamine-treated PC-3 tumors, control 82±3.2): 22.3±9.6 vessels per mm^2
- localization of ANG in tumor cells (IHC, 26-2F) (PC-3 cell tumor tissues; neamine-treated PC-3 tumors, nuclear in untreated): most of the ANG is extracellular
- 47S rRNA level (ISH) (PC-3 cell tumor tissues; neamine-treated vs control tumor tissues): decreased significantly
- AKT expression and phosphorylation (IHC) (established PIN): not affected
- established PIN phenotype (H&E) (established PIN): shrank established PIN
- rRNA transcription / 47S rRNA level (ISH) (established PIN): inhibited
- apoptotic index (TUNEL) (established PIN; neamine 10 mg/kg daily i.p. 4 weeks from week 12, untreated 0.89±0.12): 2.15±0.17 per duct
- mice with PIN regression (established PIN; neamine 10 mg/kg daily i.p. 4 weeks, 12 mice): all 12
- percentage of glands having PIN (established PIN; neamine 10 mg/kg daily i.p. 4 weeks, before/control 95.2±3.2): 33% and 33.4±5.2%
- fold by which the 30 mg/kg dose is lower than the reported LD50 ([4]; 30 mg/kg s.c. vs LD50 1250 mg/kg): 42 fold
- fold by which LD50 is higher than the highest scheduled dose ([4]; LD50 1,250 mg/kg vs 160 mg/kg): 7.8 fold
- acute or chronic adverse side effects [5]: No acute or chronic adverse side effects; also recorded: not observed
- nephrotoxicity relative to that of neomycin ([6]; cell and organ culture): ~5%
- ototoxicity relative to that of neomycin ([6]; cell and organ culture): ~6%
- toxicity relative to neomycin (fold less toxic) ([6]; toxicity profile): close to that of streptomycin and kanamycin
- effect on nuclear translocation of ANG (ANG [1]): comparable activity
- anti-angiogenic activity (angiogenesis): equally effective
- xenograft growth [7]: inhibits
- xenograft growth [8]: inhibits
- 47S rRNA level / transcription (ISH) (AKT-induced PIN): decreased dramatically
- AKT phosphorylation (IHC) (AKT-induced PIN): did not differ from those of controls
- localization of ANG in prostate epithelial cells (IHC) (AKT-induced PIN): predominantly cytoplasmic and extracellular
- PIN formation (H&E) (AKT-induced PIN): inhibited PIN formation
- vessel density (CD31) in ventral prostate (AKT-induced PIN; neamine 10 mg/kg daily 4 weeks, control 11.5±4.5): 4±0.5 per mm^2
- Ki-67 positive cells (AKT-induced PIN; neamine 10 mg/kg daily 4 weeks, untreated PIN 61.1±9.3): 24.9±8.4%
- percentage of PIN in the ventral prostate (AKT-induced PIN; neamine 10 mg/kg daily i.p. 4 weeks from week 4, control 95.1±4.3): 39.6±1.4%

Molecule: NCC[C@H](O)C(=O)N[C@@H]1C[C@H](N)[C@@H](O[C@H]2O[C@H](CN)[C@@H](O)[C@H](O)[C@H]2O)[C@H](O)[C@H]1O[C@H]1O[C@H](CO)[C@@H](O)[C@H](N)[C@H]1O [amikacin]
- effect on nuclear translocation of ANG (ANG [1]): do not block
- anti-angiogenic activity (angiogenesis): not anti-angiogenic

Molecule: CN[C@@H]1C[C@H]2O[C@@](C)([C@@H]1OC)n1c3ccccc3c3c4c(c5c6ccccc6n2c5c31)C(=O)NC4 [staurosporine]
- effect on nuclear translocation of ANG (ANG [9]): no detectable effect

Molecule: O=c1c(-c2ccc(O)cc2)coc2cc(O)cc(O)c12 [Genistein]
- effect on nuclear translocation of ANG (ANG [9]): no detectable effect

Molecule: neomycin
- AKT expression and phosphorylation (IHC) (established PIN): not different from that of the control group
- established PIN phenotype (H&E) (established PIN): reversed
- rRNA transcription / 47S rRNA level (ISH) (established PIN): dramatically decreased
- apoptotic index (established PIN): 1.95±0.19 caspase 3 positive cells per duct
- luminal cell size (established PIN; neomycin 4 weeks from week 12): restored cell size to normal
- size of the ventral prostate of a representative mouse (established PIN; neomycin 4 weeks from week 12, control 69.8): 44.3 mm^3
- xenograft growth of PC-3 cells [10]: inhibit
- effect on nuclear translocation of ANG (ANG [1]): blocks
- renal cortical levels relative to circulating levels in serum [11]: ≤ 20 times
- 47S rRNA level / transcription (ISH) (AKT-induced PIN): inhibited
- AKT phosphorylation (IHC) (AKT-induced PIN): not altered
- localization of ANG in prostate epithelial cells (IHC) (AKT-induced PIN): extracellular
- PIN formation (H&E) (AKT-induced PIN): prevented PIN formation

Molecule: C[C@]12CCC(=O)C[C@@H]1CC[C@@H]1[C@@H]2CC[C@]2(C)[C@@H](O)CC[C@@H]12 [DHT, dihydrotestosterone, reference compound]
- LNCaP cell proliferation in the absence of androgens (LNCaP cells): stimulates

Molecule: COc1ccc2c(c1)CC[C@@H]1[C@@H]2CC[C@]2(C)[C@@H](NCCCCCCN3C(=O)CCC3=O)CC[C@@H]12 [U-73343]
- effect on nuclear translocation of ANG (ANG [9]): only marginally block

Molecule: gentamicin
- effect on nuclear translocation of ANG (ANG [1]): do not block
- anti-angiogenic activity (angiogenesis): not anti-angiogenic

Molecule: COc1ccc2c(c1)CC[C@@H]1[C@@H]2CC[C@]2(C)[C@@H](NCCCCCCN3C(=O)C=CC3=O)CC[C@@H]12 [U-73122]
- effect on nuclear translocation of ANG (ANG [9]): only marginally block

Molecule: Nc1ccc(N=Nc2ccc(-c3ccc(O)cc3)cc2)c2ccc(S(=O)(=O)O)cc12 [N65828, 8-amino-5-(4′-hydroxybiphenyl-4-ylazo)naphthalene-2-sulfonate]
- AKT expression and phosphorylation (IHC) (established PIN): not different from that of the control group
- established PIN phenotype (H&E) (established PIN): reversed
- rRNA transcription / 47S rRNA level (ISH) (established PIN): dramatically decreased
- apoptotic index (established PIN): 2.02±0.21 caspase 3 positive cells per duct
- xenograft growth of PC-3 cells [10]: inhibit
- selectivity of enzymatic inhibition, ANG vs RNase A (ANG [12]): preferentially inhibited
- 47S rRNA level / transcription (ISH) (AKT-induced PIN): inhibited
- AKT phosphorylation (IHC) (AKT-induced PIN): not altered
- localization of ANG in prostate epithelial cells (IHC) (AKT-induced PIN): remained strongly in the nucleus
- PIN formation (H&E) (AKT-induced PIN): prevented PIN formation

Molecule: NC[C@@H]1O[C@H](O[C@H]2[C@@H](O)[C@H](O[C@@H]3[C@@H](O)[C@H](N)C[C@H](N)[C@H]3O[C@H]3O[C@H](CO)[C@@H](O)[C@H](O)[C@H]3N)O[C@@H]2CO)[C@H](N)[C@@H](O)[C@@H]1O [paromomycin]
- effect on nuclear translocation of ANG (ANG [9]): does not detectably block
- effect on nuclear translocation of ANG (ANG [1]): do not block
- anti-angiogenic activity (angiogenesis): not anti-angiogenic
